The results in this text go back to ChEMBL document CHEMBL5584252, “Stereochemical inversion at a 1,4-cyclohexyl PROTAC linker fine-tunes conformation and binding affinity” (Bioorg Med Chem Lett, 2024).

In assay [1] the target is Protein cereblon/Leucine-rich repeat serine/threonine-protein kinase 2 (Homo sapiens, UniProt Q5S007+Q96SW2). The assay can be described thus: PROTAC activity at CRBN/LRRK2 (unknown origin). Format: protein assay.
For assay [2], the target named is T1, Von Hippel-Lindau disease tumor suppressor/Elongin B/Elongin C (Homo sapiens, UniProt P40337). The assay can be described thus: Displacement of JC-9 probe from recombinant VHL/Elongin C/Elogin B (unknown origin) using FAM-DEALA-Hyp-YIPMDDDFQLRSF as substrate assessed as dissociation constant by competitive fluorescence polarization assay. Format: protein-complex assay.

In assay [3] the target is T2, Von Hippel-Lindau disease tumor suppressor/Elongin B/Elongin C (Homo sapiens) (UniProt P40337+Q15370+Q15369). The assay can be described thus: Binding affinity to VHL/Elongin C/Elogin B (unknown origin) assessed as change in entropy at 20 uM by ITC analysis. The assay is classed as protein-complex assay.
For assay [4], the target named is T2, Von Hippel-Lindau disease tumor suppressor/Elongin B/Elongin C (Homo sapiens). The assay can be described thus: Binding affinity to VHL/Elongin C/Elogin B (unknown origin) assessed as change in gibbs free energy at 20 uM by ITC analysis. The assay is classed as protein-complex assay.
Assay [5] deals with T1, Von Hippel-Lindau disease tumor suppressor/Elongin B/Elongin C. The assay can be described thus: Binding affinity to VHL/Elongin C/Elogin B (unknown origin) assessed as dissociation constant at 20 uM by ITC analysis. The assay is classed as protein-complex assay.
The target in assay [6] is T2, Von Hippel-Lindau disease tumor suppressor/Elongin B/Elongin C (Homo sapiens). The assay can be described thus: Binding affinity to VHL/Elongin C/Elogin B (unknown origin) assessed as change in enthalpy at 20 uM by ITC analysis. Format: protein-complex assay.
Assay [7] addresses T3, von Hippel-Lindau disease tumor suppressor/Leucine-rich repeat serine/threonine-protein kinase 2 (Mus musculus) (UniProt Q5S006+P40338). The assay can be described thus: PROTAC activity at VHL/wildtype LRRK2 in MEF cells assessed as induction of LRRK2 degradation by measuring half-life at 300 nM incubated for 48 hrs by Western blot analysis. The assay is classed as cell-based.

Assay [8] has as its system HEK293. The assay can be described thus: Binding affinity to C-terminal NanoLuc fused human LRRK2/VHL-elongin-B-elongin C (unknown origin) complex expressed in HEK293 cells assessed as ternary complex formation by measuring cooperativity factor by NanoBRET based assay. Format: cell-based.
The target in assay [9] is T3, von Hippel-Lindau disease tumor suppressor/Leucine-rich repeat serine/threonine-protein kinase 2 (Mus musculus). The assay can be described thus: PROTAC activity at VHL/wildtype LRRK2 in MEF cells assessed as induction of LRRK2 degradation by measuring maximal efficacy at 300 nM incubated for 48 hrs by Western blot analysis relative to control. The assay is classed as cell-based.

Assay [10] addresses T1, Von Hippel-Lindau disease tumor suppressor/Elongin B/Elongin C. The assay can be described thus: Binding affinity to VHL/Elongin C/Elogin B (unknown origin) using FAM-DEALA-Hyp-YIPMDDDFQLRSF as substrate assessed as dissociation constant by fluorescence polarization assay. Format: protein-complex assay.

T3 sequence (P40338 whole entry, looked up): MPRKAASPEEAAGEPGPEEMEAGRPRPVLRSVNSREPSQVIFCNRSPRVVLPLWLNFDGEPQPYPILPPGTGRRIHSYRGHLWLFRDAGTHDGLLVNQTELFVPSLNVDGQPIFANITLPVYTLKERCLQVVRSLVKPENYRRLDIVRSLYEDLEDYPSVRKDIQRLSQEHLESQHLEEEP
T3 sequence (Q5S006 whole entry, looked up): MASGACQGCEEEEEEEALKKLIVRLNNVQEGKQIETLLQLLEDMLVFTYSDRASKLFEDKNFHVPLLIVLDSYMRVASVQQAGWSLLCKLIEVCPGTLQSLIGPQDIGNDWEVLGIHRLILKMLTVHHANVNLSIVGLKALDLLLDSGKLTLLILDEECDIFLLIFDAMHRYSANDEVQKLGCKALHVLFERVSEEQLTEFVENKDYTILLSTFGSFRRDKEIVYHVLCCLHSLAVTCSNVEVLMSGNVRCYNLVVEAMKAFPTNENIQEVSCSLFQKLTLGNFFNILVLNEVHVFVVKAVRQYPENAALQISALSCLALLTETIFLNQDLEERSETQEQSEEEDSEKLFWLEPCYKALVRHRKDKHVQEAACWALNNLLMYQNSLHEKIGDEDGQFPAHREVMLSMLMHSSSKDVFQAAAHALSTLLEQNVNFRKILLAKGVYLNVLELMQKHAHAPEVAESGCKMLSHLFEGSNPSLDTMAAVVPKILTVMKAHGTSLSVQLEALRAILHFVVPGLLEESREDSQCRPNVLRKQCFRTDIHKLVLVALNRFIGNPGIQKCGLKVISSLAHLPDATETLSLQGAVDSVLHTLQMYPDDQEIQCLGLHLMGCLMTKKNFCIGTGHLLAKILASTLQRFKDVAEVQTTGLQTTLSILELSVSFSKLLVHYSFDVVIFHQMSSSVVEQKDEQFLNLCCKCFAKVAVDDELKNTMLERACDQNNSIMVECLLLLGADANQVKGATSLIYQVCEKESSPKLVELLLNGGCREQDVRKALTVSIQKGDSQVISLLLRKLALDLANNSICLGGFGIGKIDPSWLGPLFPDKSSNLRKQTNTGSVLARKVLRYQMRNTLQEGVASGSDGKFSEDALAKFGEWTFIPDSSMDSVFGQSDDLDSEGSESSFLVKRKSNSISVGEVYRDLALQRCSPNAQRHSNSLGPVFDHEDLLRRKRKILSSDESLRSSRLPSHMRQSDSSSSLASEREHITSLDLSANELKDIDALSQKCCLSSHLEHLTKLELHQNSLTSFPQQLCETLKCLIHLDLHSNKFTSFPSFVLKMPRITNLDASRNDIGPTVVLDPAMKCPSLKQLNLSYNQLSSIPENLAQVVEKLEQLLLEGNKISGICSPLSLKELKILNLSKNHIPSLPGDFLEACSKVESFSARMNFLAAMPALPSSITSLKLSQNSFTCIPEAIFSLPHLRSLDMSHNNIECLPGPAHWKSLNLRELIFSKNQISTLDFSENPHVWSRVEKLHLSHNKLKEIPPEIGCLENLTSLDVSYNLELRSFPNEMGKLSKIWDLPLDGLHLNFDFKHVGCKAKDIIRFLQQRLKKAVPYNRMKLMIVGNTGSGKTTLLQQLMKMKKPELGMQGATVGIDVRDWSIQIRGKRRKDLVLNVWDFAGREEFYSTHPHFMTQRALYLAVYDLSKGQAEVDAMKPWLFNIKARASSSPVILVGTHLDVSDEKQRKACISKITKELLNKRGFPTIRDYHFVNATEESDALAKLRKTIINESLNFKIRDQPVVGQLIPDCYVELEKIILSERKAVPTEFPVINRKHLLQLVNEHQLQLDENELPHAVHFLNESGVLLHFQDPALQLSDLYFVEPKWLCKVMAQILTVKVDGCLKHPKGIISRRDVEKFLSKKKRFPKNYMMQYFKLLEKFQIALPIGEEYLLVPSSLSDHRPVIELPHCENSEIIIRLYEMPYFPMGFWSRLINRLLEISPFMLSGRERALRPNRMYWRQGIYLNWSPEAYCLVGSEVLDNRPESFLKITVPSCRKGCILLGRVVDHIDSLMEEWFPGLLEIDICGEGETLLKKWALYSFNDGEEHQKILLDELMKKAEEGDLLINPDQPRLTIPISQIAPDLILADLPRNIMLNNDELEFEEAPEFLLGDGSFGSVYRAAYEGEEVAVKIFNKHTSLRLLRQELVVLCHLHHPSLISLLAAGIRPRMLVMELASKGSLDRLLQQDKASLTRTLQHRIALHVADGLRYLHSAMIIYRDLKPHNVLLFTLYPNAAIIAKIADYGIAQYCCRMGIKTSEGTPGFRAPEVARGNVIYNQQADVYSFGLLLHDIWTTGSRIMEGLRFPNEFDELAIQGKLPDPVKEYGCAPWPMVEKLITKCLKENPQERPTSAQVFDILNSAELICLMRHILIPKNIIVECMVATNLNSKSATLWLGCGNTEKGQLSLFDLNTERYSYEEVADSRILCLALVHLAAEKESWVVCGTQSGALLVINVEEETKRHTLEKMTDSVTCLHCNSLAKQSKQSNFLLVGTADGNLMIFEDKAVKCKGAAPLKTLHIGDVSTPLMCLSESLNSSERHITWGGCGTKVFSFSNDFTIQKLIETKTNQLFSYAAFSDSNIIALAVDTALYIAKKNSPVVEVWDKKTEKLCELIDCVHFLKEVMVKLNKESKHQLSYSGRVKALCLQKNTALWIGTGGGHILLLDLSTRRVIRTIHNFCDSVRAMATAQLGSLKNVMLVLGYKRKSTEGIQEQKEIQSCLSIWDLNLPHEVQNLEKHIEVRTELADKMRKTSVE
T2 sequence (P40337 whole entry, looked up): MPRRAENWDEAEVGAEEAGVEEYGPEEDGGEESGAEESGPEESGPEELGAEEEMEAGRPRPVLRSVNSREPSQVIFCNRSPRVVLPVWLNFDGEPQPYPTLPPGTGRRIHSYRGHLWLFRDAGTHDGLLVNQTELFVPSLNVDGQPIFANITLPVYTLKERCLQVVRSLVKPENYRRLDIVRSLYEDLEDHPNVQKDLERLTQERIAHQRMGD
T2 sequence (Q15369 whole entry, looked up): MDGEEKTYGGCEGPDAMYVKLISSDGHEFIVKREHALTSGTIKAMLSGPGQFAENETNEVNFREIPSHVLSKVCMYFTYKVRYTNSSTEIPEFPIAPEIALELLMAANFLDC
T2 sequence (Q15370 whole entry, looked up): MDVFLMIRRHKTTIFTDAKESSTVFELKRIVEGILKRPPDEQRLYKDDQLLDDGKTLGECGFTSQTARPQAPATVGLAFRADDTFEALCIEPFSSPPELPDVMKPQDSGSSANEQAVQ
T1 sequence (P40337 whole entry, looked up): as the sequence (P40337 whole entry, looked up) above

Compound `CC1(Oc2ccc3[nH]nc(-c4cc(N5CCN(C[C@H]6CC[C@@H](CN7CCN(c8ccc9c(c8F)CN(C8CCC(=O)NC8=O)C9=O)CC7)CC6)CC5)ncn4)c3c2)CC1` (stereo partly specified) registered a DC50 in assay [1] of less than 10 nM.
Consider `COc1ccc(C(=O)N2CCN(C[C@H]3CC[C@H](CSC(C)(C)[C@H](NC(=O)C4(F)CC4)C(=O)N4C[C@H](O)C[C@H]4C(=O)NCc4ccc(-c5scnc5C)cc4)CC3)CC2)cc1`, for which, in assay [2], the Kd was 585 nM.
As to `COc1ccc(C(=O)N2CCN(C[C@H]3CC[C@@H](CSC(C)(C)[C@H](NC(=O)C4(F)CC4)C(=O)N4C[C@H](O)C[C@H]4C(=O)NCc4ccc(-c5scnc5C)cc4)CC3)CC2)cc1`, the Kd in assay [2] amounted to 260 nM.
As to `CSC(C)(C)[C@H](NC(=O)C1(F)CC1)C(=O)N1C[C@H](O)C[C@H]1C(=O)NCc1ccc(-c2scnc2C)cc1`, in assay [2], the Kd was 406 nM.
Turning to `Cc1ncsc1-c1ccc(CNC(=O)[C@@H]2C[C@@H](O)CN2C(=O)[C@@H](NC(=O)C2(F)CC2)C(C)(C)SC[C@H]2CC[C@@H](CN3CCOCC3)CC2)cc1`, the TdeltaS in assay [3] is -1.31 kcal/mol. Further, the deltaG in [4] is -9.25 kcal/mol. Also, the Kd in assay [2] was 354 nM; in assay [5], 165 nM. The deltaH in [6] is -7.96 kcal/mol.
With `Cc1ncsc1-c1ccc(CNC(=O)[C@@H]2C[C@@H](O)CN2C(=O)[C@@H](NC(=O)C2(F)CC2)C(C)(C)SC[C@H]2CC[C@@H](CN(C)C)CC2)cc1`, the Kd in [2] is 313 nM.
With `Cc1ncsc1-c1ccc(CNC(=O)[C@@H]2C[C@@H](O)CN2C(=O)[C@@H](NC(=O)C2(F)CC2)C(C)(C)SC[C@H]2CC[C@H](CN3CCOCC3)CC2)cc1`, in assay [3], the TdeltaS was -1.77 kcal/mol. The deltaG in assay [4] was -8.75 kcal/mol. Also, the values for the Kd in [2] and in assay [5] were 540 nM and 396 nM, respectively. Moreover, the deltaH in assay [6] is -6.98 kcal/mol.
Consider `CNc1nc(Nc2ccc(C(=O)N3CCN(C[C@H]4CC[C@@H](CSC(C)(C)[C@H](NC(=O)C5(F)CC5)C(=O)N5C[C@H](O)C[C@H]5C(=O)NCc5ccc(-c6scnc6C)cc5)CC4)CC3)cc2OC)ncc1Cl`, for which the T1/2 in assay [7] worked out at 2.7 h. Besides, the Activity in [8] amounted to 1.4. Besides, in [9], the Emax came out at 59%. In addition, the dissociation constant (Kd) in assay [2] turned out to be 326 nM; in [10] it was 160 nM.
Take `Cc1ncsc1-c1ccc(CNC(=O)[C@@H]2C[C@@H](O)CN2C(=O)[C@@H](NC(=O)C2(F)CC2)C(C)(C)SC[C@H]2CC[C@H](CN(C)C)CC2)cc1`: the Kd in assay [2] amounted to 514 nM.
With `CNc1nc(Nc2ccc(C(=O)N3CCN(C[C@H]4CC[C@H](CSC(C)(C)[C@H](NC(=O)C5(F)CC5)C(=O)N5C[C@H](O)C[C@H]5C(=O)NCc5ccc(-c6scnc6C)cc5)CC4)CC3)cc2OC)ncc1Cl`, in [7], the T1/2 was 1.2 h. Further, in [8], the Activity was 5.7. Further, the Emax in assay [9] is 82%. The Kd is more than 820 nM in assay [2] and more than 2330 nM in [10].
